Among the data in ChEMBL document CHEMBL5126628, “Aspersterols A-D, Ergostane-Type Sterols with an Unusual Unsaturated Side Chain from the Deep-Sea-Derived Fungus Aspergillus unguis” (J Nat Prod, 2022) are GI50, IC50 and inhibition values, retold here.

The structures appear in SMILES notation. Structures can show the parent of a compound that is named as a salt.

One assay has as its system MDA-MB-231. Nature of the assay: Growth inhibition of human MDA-MB-231 cells by SRB assay. Type of assay: functional. A general note: Sulforhodamine B stains cellular protein and so reports cell mass.
In the next assay the test system is PC-3. Nature of the assay: Growth inhibition of human PC-3 cells by SRB assay. Type of assay: functional.
The next assay concerns ACHN. Nature of the assay: Growth inhibition of human ACHN cells by SRB assay. The assay is classed as functional.
In the next assay the test system is NCI-H23. Nature of the assay: Growth inhibition of human NCI-H23 cells by SRB assay. The assay is classed as functional.
In another assay the test system is NUGC-3. Nature of the assay: Growth inhibition of human NUGC-3 cells by SRB assay. The assay is classed as functional.
The test system of another assay is HCT-15. Nature of the assay: Growth inhibition of human HCT-15 cells by SRB assay. Type of assay: functional.
In assay [1] the test system is RAW264.7. Nature of the assay: Antiinflammatory activity in mouse RAW264.7 cells assessed as reduction in LPS-induced nitric oxide production by griess assay. The assay is classed as functional, cell-based. (In general: The Griess reaction detects nitrite, a stable product of nitric oxide.)
Assay [2] concerns RAW264.7. Nature of the assay: Antiinflammatory activity in mouse RAW264.7 cells assessed as reduction in LPS-induced IL6 production […]. Type of assay: functional, cell-based. The following applies: DDE = dose-dependent effect.
Assay [3] concerns RAW264.7. Nature of the assay: Antiinflammatory activity in mouse RAW264.7 cells assessed as reduction in LPS-induced iNOS mRNA expression […]. Type of assay: functional, cell-based. The note with it: DDE = dose-dependent effect.
Assay [4] has as its system RAW264.7. Nature of the assay: Antiinflammatory activity in mouse RAW264.7 cells assessed as reduction in LPS-induced IL6 mRNA expression […]. Type of assay: functional, cell-based. The following applies: DDE = dose-dependent effect.
Assay [5] deals with RAW264.7. Nature of the assay: Antiinflammatory activity in mouse RAW264.7 cells assessed as reduction in LPS-induced nitrite production by griess assay. The assay is classed as functional, cell-based. The note with it: DDE = dose-dependent effect.

In general, GI50 refers to the concentration giving 50% growth inhibition. As to `COc1cccc2c1C(=O)c1c(O)c3c(c(O)c1C2=O)C[C@@](O)(C(=O)CO)C[C@@H]3O[C@H]1C[C@H](N)[C@H](O)[C@H](C)O1` [DOXORUBICIN HYDROCHLORIDE], the GI50 in the assay on MDA-MB-231 was determined as 0.08 µM; with PC-3, 0.09 µM; with ACHN, 0.07 µM; in the assay with NCI-H23 it was 0.08 µM; in the assay on NUGC-3 it was 0.08 µM; with HCT-15, 0.09 µM.

As to `CC(/C=C/[C@H](C)C(C)C)=C1\[C@H](O)C[C@H]2c3cc4c(c(C)c3CC[C@]12C)CC[C@H](O)C4`, the GI50 in the assay with MDA-MB-231 was found to be 3.4 µM; with PC-3 it was 3.9 µM; in the assay on ACHN, 4.3 µM; in the assay with NCI-H23 it was 4.4 µM; with NUGC-3, 4.2 µM; with HCT-15, 4.5 µM.

The term IC50 denotes the concentration that inhibits the measured activity by half. As for `CC(/C=C/[C@H](C)C(C)C)=C1\[C@H](O)C[C@H]2C3=CC(=O)[C@@]4(O)C[C@@H](O)CC[C@]4(C)[C@H]3CC[C@]12C`, the GI50 with MDA-MB-231, with PC-3, with ACHN, with NCI-H23, in the assay with NUGC-3 and in the assay with HCT-15 was more than 30 µM each time. In addition, in the assay with RAW264.7 [1], the IC50 stood at 14.5 µM.

For the molecule `CC(/C=C/[C@H](C)C(C)C)=C1\CC[C@H]2C3=CC(=O)[C@@]4(O)C[C@@H](O)CC[C@]4(C)[C@@]3(O)CC[C@]12C`, the GI50 in the assay on MDA-MB-231, with PC-3, with ACHN, with NCI-H23, with NUGC-3 and in the assay with HCT-15 was more than 30 µM throughout. In addition, in the assay on RAW264.7 [1], the IC50 turned out to be 19.5 µM.

Turning to `CC(/C=C/[C@H](C)C(C)C)=C1\CC[C@H]2C3=CC(=O)[C@@]4(O)C[C@@H](O)CC[C@]4(C)[C@H]3CC[C@]12C`, the GI50 was 13.5 µM in the assay on MDA-MB-231; 13.8 µM with PC-3; 12.5 µM with ACHN; 10.3 µM in the assay with NCI-H23; 11.5 µM in the assay with NUGC-3; 13.2 µM in the assay on HCT-15. Moreover, the IC50 in the assay on RAW264.7 [1] was 11.6 µM. For the same molecule, the inhibition entry in the assay on RAW264.7 [2], in the assay with RAW264.7 [3], in the assay on RAW264.7 [4] and in the assay on RAW264.7 [5] was “Dde” each time.
